These results are taken from publication PMC10303200 (ACS Central Science, 2023).

Several values for one entry are separate records, joined by “and”; a condition that tells them apart may be missing. Equal values may be shown once. Read-outs that look alike come from different tables or passages of the source.

One test addresses Siglec-7. Particulars: ITC; cited from earlier work. In general terms: In ITC the heat of successive injections is recorded.
The target of the next test is MAA. The test can be described thus: Isothermal titration calorimetry (ITC). Format: binding, Maackia amurensis. As to conditions: ammonium acetate 200 mM, 25 °C, read-out: apparent Kd by ITC (Literature).
Test [1] has as its target T1, AAL (Aleuria Aurantia lectin) (Aleuria aurantia, UniProt P18891).
T1 construct: purchased Vector Laboratories (Newark, CA, USA)
T1 sequence (P18891 1-313): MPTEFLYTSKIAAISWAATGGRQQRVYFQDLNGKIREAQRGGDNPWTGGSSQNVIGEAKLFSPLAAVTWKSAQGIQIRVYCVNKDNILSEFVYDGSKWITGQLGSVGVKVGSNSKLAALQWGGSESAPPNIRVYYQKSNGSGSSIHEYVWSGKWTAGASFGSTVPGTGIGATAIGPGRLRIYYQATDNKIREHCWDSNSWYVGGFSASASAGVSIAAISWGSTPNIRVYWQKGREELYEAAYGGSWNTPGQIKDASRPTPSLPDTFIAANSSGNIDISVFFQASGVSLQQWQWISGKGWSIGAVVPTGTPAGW
The test can be described thus: COIN-CaR-nMS. Format: binding. As to conditions: N-glycan natural libraries; pH 6.9.

Test [2] addresses RCA-I (Ricinus communis agglutinin) (Ricinus communis, UniProt P06750). Format: binding. As to conditions: pH 6.9; read-out: Kd (Native).
Test [3] has as its target T2, fCD22 (fragment of human Siglec 2) (Homo sapiens, UniProt P20273).
T2 construct: A fragment of human Siglec 2 (fCD22, residue 1–332, MW 37.4 kDa); made in house; host or cells: wild-type CHO cells
T2 sequence (P20273 20-332): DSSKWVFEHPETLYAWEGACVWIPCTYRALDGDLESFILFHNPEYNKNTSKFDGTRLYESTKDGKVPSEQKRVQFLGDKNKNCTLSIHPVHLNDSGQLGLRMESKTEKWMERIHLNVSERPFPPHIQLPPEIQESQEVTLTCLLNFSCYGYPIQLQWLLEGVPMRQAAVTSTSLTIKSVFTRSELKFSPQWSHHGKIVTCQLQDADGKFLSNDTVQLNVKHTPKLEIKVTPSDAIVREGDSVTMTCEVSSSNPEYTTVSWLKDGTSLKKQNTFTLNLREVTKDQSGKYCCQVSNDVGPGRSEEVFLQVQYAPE
The test can be described thus: COIN-nMS affinity measurement. Format: binding.

Test [4] addresses T2, fCD22 (fragment of human Siglec 2). As to conditions: literature value; ref S3; cited from earlier work.
For test [5] the target is unchanged. Description: direct nMS affinity measurement. Format: binding. Particulars: individual glycan; ammonium acetate 200 mM, pH 6.9.
Test [6] concerns the target T3, GAL-3C (Homo sapiens, UniProt P17931). The test can be described thus: COIN-nMS affinity measurement. Format: binding. Details: human Galectin-3 (GAL-3C, residues 107–250, molecular weight (MW) 16 327 Da); key: NB: No binding detected. As to conditions: glycans present as a mixture (G2, G5-G13); average of eight measurements; pH 6.9.
For test [7], the target named is T4, GAL-7 homodimer (Homo sapiens, UniProt P47929).
T4 construct: made in house
T4 sequence (P47929 whole entry): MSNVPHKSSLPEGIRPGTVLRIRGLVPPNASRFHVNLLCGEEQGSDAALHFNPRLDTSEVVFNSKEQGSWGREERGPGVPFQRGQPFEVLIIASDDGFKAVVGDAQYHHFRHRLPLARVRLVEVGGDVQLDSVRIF
Description: COIN-nMS affinity measurement. Format: binding. The arrangement: key: NB: No binding detected. Particulars: glycans present as a mixture (G2, G5-G13); average of eight measurements; pH 6.9.

The target of test [8] is T4, GAL-7 homodimer. The test can be described thus: direct nMS affinity measurement. The format is binding. Details: key: NB: No binding detected. Particulars: glycans present as a mixture (G2, G5-G13); pH 6.9.
Test [9] deals with T5, GNA (Galanthus nivalis, UniProt P30617).
T5 sequence (P30617 24-128 limits assumed): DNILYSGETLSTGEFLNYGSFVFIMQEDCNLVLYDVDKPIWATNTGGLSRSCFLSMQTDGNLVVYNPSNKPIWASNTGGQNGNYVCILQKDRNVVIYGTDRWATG
The test can be described thus: direct nMS (ESI-MS) measurement. Format: binding. As to conditions: read-out: Kd by direct nMS (column Kd (Literature)).

Test [10] deals with T5, GNA. The test can be described thus: COIN-CaR-nMS. Format: binding. Particulars: purified glycan; ammonium acetate 200 mM, pH 6.9.
In test [11] the target is T6, DC-SIGN CRD (Homo sapiens, UniProt Q9NNX6).
T6 sequence (Q9NNX6 250-404): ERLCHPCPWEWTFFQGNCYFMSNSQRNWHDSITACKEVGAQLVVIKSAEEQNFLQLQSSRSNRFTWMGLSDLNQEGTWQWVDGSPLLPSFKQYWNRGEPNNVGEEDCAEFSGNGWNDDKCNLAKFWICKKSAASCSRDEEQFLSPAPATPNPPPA
The test can be described thus: COIN-nMS affinity measurement. The format is binding. The arrangement: The carbohydrate recognition domain (CRD) of DC-SIGN (residues 250–404, MW 17 794 Da); made in house.

For test [12], the target named is T3, GAL-3C. Description: direct nMS (ESI-MS) affinity measurement at known concentrations. Format: binding. The arrangement: human Galectin-3 (GAL-3C, residues 107–250, molecular weight (MW) 16 327 Da); key: NB: No binding detected. As to conditions: glycans present as a mixture (G2, G5-G13); pH 6.9.
Test [13] deals with T6, DC-SIGN CRD. Description: direct nMS affinity measurement. Details: The carbohydrate recognition domain (CRD) of DC-SIGN (residues 250–404, MW 17 794 Da); made in house. Format: binding. Particulars: pH 7.4.
The target of test [14] is T3, GAL-3C. Details: human Galectin-3 (GAL-3C, residues 107–250, molecular weight (MW) 16 327 Da). Particulars: known Kd used to calculate glycan concentration; cited from earlier work.
A further test concerns the target SARS-CoV-2 RBD (Severe acute respiratory syndrome coronavirus 2, UniProt P0DTC2). The test can be described thus: biochemical. Format: binding. Particulars: pH 6.9.
The test system of test [15] is MAA (Maackia amurensis agglutinin). The test can be described thus: COIN-CaR-nMS. Format: binding.
Test [16] has as its target SNA (Sambucus nigra agglutinin) (Sambucus nigra, UniProt Q41358). Description: biochemical. The format is binding.
A further test concerns the target Sig7-Fc (Homo sapiens, UniProt Q9Y286). The test can be described thus: COIN-CaR-nMS. As to conditions: N-glycan natural libraries and purified oligosaccharides; pH 6.9; read-out: Kd. The format is binding. Details: Siglec 7-Fc (Sig7-Fc, residue 1–345, MW 150 kDa); His6 (C); made in house; host or cells: wild-type CHO cells.

Chain of SNA (Sambucus nigra agglutinin) (Q41358 309-570 limits assumed): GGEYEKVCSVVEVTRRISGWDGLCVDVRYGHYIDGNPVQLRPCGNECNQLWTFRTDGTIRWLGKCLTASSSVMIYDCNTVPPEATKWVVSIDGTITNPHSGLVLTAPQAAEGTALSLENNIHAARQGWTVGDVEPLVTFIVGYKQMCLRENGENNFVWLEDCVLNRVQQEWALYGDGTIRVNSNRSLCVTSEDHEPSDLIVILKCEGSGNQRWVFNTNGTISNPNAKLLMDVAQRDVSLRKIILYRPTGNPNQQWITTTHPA
Chain of SNA (Sambucus nigra agglutinin) (Q41358 29-289 partner limits assumed): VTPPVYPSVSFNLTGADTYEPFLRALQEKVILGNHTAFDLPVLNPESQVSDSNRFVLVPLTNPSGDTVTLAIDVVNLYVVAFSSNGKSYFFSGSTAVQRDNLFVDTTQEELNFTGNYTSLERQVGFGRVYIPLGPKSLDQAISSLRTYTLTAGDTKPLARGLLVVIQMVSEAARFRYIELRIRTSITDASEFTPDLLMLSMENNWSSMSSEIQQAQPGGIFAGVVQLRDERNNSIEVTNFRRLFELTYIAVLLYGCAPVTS
T3 sequence (P17931 107-250): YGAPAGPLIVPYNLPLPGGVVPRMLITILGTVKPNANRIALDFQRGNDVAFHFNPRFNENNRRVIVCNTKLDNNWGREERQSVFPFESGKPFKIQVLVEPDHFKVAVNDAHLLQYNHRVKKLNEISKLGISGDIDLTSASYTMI
Chain of Sig7-Fc (Q9Y286 19-345): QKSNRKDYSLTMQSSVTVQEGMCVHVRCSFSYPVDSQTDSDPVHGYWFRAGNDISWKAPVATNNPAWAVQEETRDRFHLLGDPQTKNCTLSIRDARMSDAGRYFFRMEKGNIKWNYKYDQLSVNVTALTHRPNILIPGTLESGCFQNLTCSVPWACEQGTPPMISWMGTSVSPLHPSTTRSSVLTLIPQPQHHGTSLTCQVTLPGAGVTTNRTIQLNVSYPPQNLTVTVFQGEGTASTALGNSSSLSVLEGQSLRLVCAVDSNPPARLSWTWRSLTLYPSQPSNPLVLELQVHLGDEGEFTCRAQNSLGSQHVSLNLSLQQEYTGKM

With `CC(=O)N[C@H]1[C@H]([C@H](O)[C@H](O)CO)O[C@@](O[C@H]2[C@@H](O)[C@@H](CO)O[C@@H](O[C@H]3[C@H](O)[C@@H](O)C(O)O[C@@H]3CO)[C@@H]2O)(C(=O)O)C[C@@H]1O` (stereo partly drawn) [Glycan G22, α-D-Neu5Ac-(2→3)-β-D-Gal-(1→4)-D-Glc], the Kd on Siglec-7 is 680 µM; at MAA, 4 ± 2 µM.

Turning to `CC(=O)N[C@H]1[C@H](O[C@H]2[C@H](O)[C@@H](NC(C)=O)C(O)O[C@@H]2CO[C@@H]2O[C@@H](C)[C@@H](O)[C@@H](O)[C@@H]2O)O[C@H](CO)[C@@H](O[C@@H]2O[C@H](CO[C@H]3O[C@H](CO)[C@@H](O)[C@H](O)[C@@H]3O[C@@H]3O[C@H](CO)[C@@H](O)[C@H](O)[C@H]3NC(C)=O)[C@@H](O)[C@H](O[C@H]3O[C@H](CO)[C@@H](O)[C@H](O)[C@@H]3O[C@@H]3O[C@H](CO)[C@@H](O)[C@H](O)[C@H]3NC(C)=O)[C@@H]2O)[C@@H]1O` (stereo partly drawn) [HexNAc4Hex3Fuc1], the Kd turned out to be 2.6 ± 0.57 µM in test [1] and 1.73 ± 0.08 µM in test [2].

Regarding `CC(=O)NC1C(O)OC(CO)C(OC2OC(CO)C(OC3OC(COC4OC(CO)C(O)C(O)C4OC4OC(CO)C(OC5OC(COC6(C(=O)O)CC(O)C(NC(C)=O)C(C(O)C(O)CO)O6)C(O)C(O)C5O)C(O)C4NC(C)=O)C(O)C(OC4OC(CO)C(O)C(O)C4OC4OC(CO)C(OC5OC(COC6(C(=O)O)CC(O)C(NC(C)=O)C(C(O)C(O)CO)O6)C(O)C(O)C5O)C(O)C4NC(C)=O)C3O)C(O)C2NC(C)=O)C1O` [Glycan G4, [α-D-Neu5Ac-(2→6)-β-D-Gal-(1→4)-β-D-GlcNAc-(1→2)-α-D-Man-(1→3)]-[α-D-Neu5Ac-(2→6)-β-D-Gal-(1→4)-β-D-GlcNAc-(1→2)-α-D-Man-(1→6)]-β-D-Man(1→4)-β-D-GlcNAc-(1→4)-D-GlcNAc], the Kd in test [3] (global fit of data sets at 30, 50, 75 µM glycan, read-out: Kd (COIN-nMS, global fit)) was 23.5 ± 1.4 µM; in [3] (glycan concentration 30 µM, pH 6.9, read-out: Kd (COIN-nMS, individual experiments)), 25.4 ± 2.2 µM; in test [3] (glycan concentration 50 µM, pH 6.9, read-out: Kd (COIN-nMS, individual experiments)), 37.5 ± 0.5 µM; in test [3] (glycan concentration 75 µM, pH 6.9, read-out: Kd (COIN-nMS, individual experiments)), 23.4 ± 0.7 µM; in test [4] it was 13.1 ± 0.6 µM; in test [5], 13.1 ± 0.6 µM.

For `OC[C@H]1O[C@H](O[C@@H]2[C@@H](OC[C@H]3O[C@H](OC[C@H]4OC(O)[C@@H](O)[C@@H](O[C@H]5O[C@H](CO)[C@@H](O)[C@H](O)[C@@H]5O[C@H]5O[C@H](CO)[C@@H](O)[C@H](O)[C@@H]5O[C@H]5O[C@H](CO)[C@@H](O)[C@H](O)[C@@H]5O)[C@@H]4O)[C@@H](O)[C@@H](O[C@H]4O[C@H](CO)[C@@H](O)[C@H](O)[C@@H]4O[C@H]4O[C@H](CO)[C@@H](O)[C@H](O)[C@@H]4O)[C@@H]3O)O[C@H](CO)[C@@H](O)[C@@H]2O)[C@@H](O)[C@@H](O)[C@@H]1O` (stereo partly drawn) [Glycan G5, α-D-Man-(1→2)-α-D-Man-(1→6)-[Man-(1→2)-α-D-Man-(1→3)]-α-D-Man-(1→6)-[Man-(1→2)-α-D-Man-(1→2)-α-D-Man-(1→3)]-α-D-Man], the “Kd (COIN-nMS)” value on GAL-3C [6] was “NB and do not bind”; on GAL-7 homodimer [7], “NB and do not bind”. Also, the “Kd (nMS)” value at GAL-7 homodimer [8] and at GAL-3C [12] was “NB” each time. The Kd came to 774 µM on GNA [9]; 553.2 ± 1 µM at GNA [10]; 235 ± 12.6 µM at DC-SIGN CRD [11] (global fit of data sets at 75, 100, 125 µM glycan, read-out: Kd (COIN-nMS, global fit)); 212 ± 2.2 µM at DC-SIGN CRD [11] (glycan concentration 75 µM, pH 7.4, read-out: Kd (COIN-nMS, individual experiments)); 246.7 ± 1 µM on DC-SIGN CRD [11] (glycan concentration 100 µM, pH 7.4, read-out: Kd (COIN-nMS, individual experiments)); 234 ± 1.5 µM on DC-SIGN CRD [11] (glycan concentration 125 µM, pH 7.4, read-out: Kd (COIN-nMS, individual experiments)). Moreover, the Kd was 240 ± 40 µM on DC-SIGN CRD [11] (glycans present as a mixture (G2, G5, G10, G14-G20), average of six measurements, pH 7.4, read-out: Kd (COIN-nMS)); 230 ± 20 µM on DC-SIGN CRD [13] (glycans present as a mixture (G2, G5, G10, G14-G20)); 231 ± 17.3 µM on DC-SIGN CRD [13] (individual glycan, ammonium acetate 200 mM, 2.5 mM calcium).

For the compound “α-D-GalNAc(1→3)-[α-L-Fuc(1→2)]-β-Gal(1→4)-D-GlcNAc [Glycan G24]”, at GAL-3C [14], the Kd was 7.2 ± 0.4 µM.

Take `CC(=O)N[C@H]1[C@H]([C@H](O)[C@H](O)CO)O[C@@](OC[C@H]2O[C@@H](O[C@H]3[C@H](O)[C@@H](NC(C)=O)C(O)O[C@@H]3CO)[C@H](O)[C@@H](O)[C@H]2O)(C(=O)O)C[C@@H]1O` (stereo partly drawn) [Glycan G23, α-D-Neu5Ac-(2→6)-β-D-Gal-(1→4)-D-GlcNAc]: the Kd was 76 ± 9 µM on SARS-CoV-2 RBD; 0.6 µM in test [16] (Kd (COIN-CaR-nMS)); 700 nM and 900 nM and 400 nM (2×) and 300 nM and 600 nM in test [16] (Kd (COIN-CaR-nMS), two ligands); 0.55 ± 0.16 µM in [16] (pH 6.9, read-out: Kd, Native library (-NeuS)); 265 ± 66 µM at Sig7-Fc. Also, the “fold weaker binding than G25” value in test [15] was 2 fold.
